Laboratory results published in ChEMBL document CHEMBL1201862, “PubChem BioAssay data set” (2004).
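Test compounds were applied to cells in 96-well plates for 48 hours at 5 doses. Here, GI50 denotes the concentration required for 50% inhibition of growth.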 Calls of active or inactive are those of the source. Rule as the data show it: active = GI50 up to about 1.1 µM and inactive = higher.

Tests used:
Assay in all cases: NCI anticancer screen, dose series, 48 h
NCI-H23 = test system: NCI-H23
SK-MEL-28 = test system: SK-MEL-28
COLO 205 = test system: COLO 205
NCI-H522 = test system: NCI-H522
UO-31 = test system: UO-31
SF-268 = test system: SF-268
TK-10 = test system: TK-10
MDA-N = test system: MDA-N
SK-OV-3 = test system: SK-OV-3
A549 = test system: A549
KM12 = test system: KM12
OVCAR-5 = test system: OVCAR-5
HT-29 = test system: HT-29
SR = test system: SR
K562 = test system: K562
HL-60 = test system: HL-60
HOP-62 = test system: HOP-62
OVCAR-8 = test system: OVCAR-8
LOX IMVI = test system: LOX IMVI
HCT-116 = test system: HCT-116
MDA-MB-435 = test system: MDA-MB-435
MOLT-4 = test system: MOLT-4
PC-3 = test system: PC-3
OVCAR-4 = test system: OVCAR-4
HCC 2998 = test system: HCC 2998
SK-MEL-2 = test system: SK-MEL-2
U-251 = test system: U-251
SF-295 = test system: SF-295
ACHN = test system: ACHN
UACC-62 = test system: UACC-62
T47D = test system: T47D
DU-145 = test system: DU-145
SNB-75 = test system: SNB-75
SNB-19 = test system: SNB-19
SW-620 = test system: SW-620
OVCAR-3 = test system: OVCAR-3
EKVX = test system: EKVX
SN12C = test system: SN12C
IGROV-1 = test system: IGROV-1
HCT-15 = test system: HCT-15
HOP-92 = test system: HOP-92
MDA-MB-231 = test system: MDA-MB-231
NCI-H460 = test system: NCI-H460
UACC-257 = test system: UACC-257
CAKI-1 = test system: CAKI-1
NCI/ADR-RES = test system: NCI/ADR-RES
Hs-578T = test system: Hs-578T
NCI-H226 = test system: NCI-H226
A498 = test system: A498
MCF7 = test system: MCF7
Malme-3M = test system: Malme-3M
SF-539 = test system: SF-539
SK-MEL-5 = test system: SK-MEL-5
RPMI-8226 = test system: RPMI-8226
BT-549 = test system: BT-549
CCRF-CEM = test system: CCRF-CEM
786-0 = test system: 786-0
M14 = test system: M14

O=C(O)[C@@H]1CCC(=O)N1C(c1ccc2c(c1)OCO2)c1ccc2c(c1)OCO2
GI50 (NCI-H23): > 100 µM (inactive) | GI50 (SK-MEL-28): > 100 µM (inactive) | GI50 (COLO 205): > 100 µM (inactive) | GI50 (NCI-H522): > 100 µM (inactive) | GI50 (UO-31): > 100 µM (inactive) | GI50 (SF-268): > 100 µM (inactive) | GI50 (TK-10): > 100 µM (inactive) | GI50 (MDA-N): > 100 µM (inactive) | GI50 (SK-OV-3): > 10 µM (inactive) | GI50 (A549): > 100 µM (inactive) | GI50 (KM12): > 100 µM (inactive) | GI50 (OVCAR-5): > 100 µM (inactive) | GI50 (HT-29): > 100 µM (inactive) | GI50 (SR): > 100 µM (inactive) | GI50 (K562): > 100 µM (inactive) | GI50 (HL-60): > 100 µM (inactive) | GI50 (HOP-62): > 100 µM (inactive) | GI50 (OVCAR-8): > 100 µM (inactive) | GI50 (LOX IMVI): > 100 µM (inactive) | GI50 (HCT-116): > 100 µM (inactive) | GI50 (MDA-MB-435): > 100 µM (inactive) | GI50 (MOLT-4): > 100 µM (inactive) | GI50 (PC-3): > 100 µM (inactive) | GI50 (OVCAR-4): 35.2 µM (inactive) | GI50 (HCC 2998): > 100 µM (inactive) | GI50 (SK-MEL-2): > 100 µM (inactive) | GI50 (U-251): > 100 µM (inactive) | GI50 (SF-295): > 100 µM (inactive) | GI50 (ACHN): > 100 µM (inactive) | GI50 (UACC-62): > 100 µM (inactive) | GI50 (T47D): > 100 µM (inactive) | GI50 (DU-145): > 100 µM (inactive) | GI50 (SNB-75): > 100 µM (inactive) | GI50 (SNB-19): > 100 µM (inactive) | GI50 (SW-620): > 100 µM (inactive) | GI50 (OVCAR-3): > 100 µM (inactive) | GI50 (EKVX): > 100 µM (inactive) | GI50 (SN12C): > 100 µM (inactive) | GI50 (IGROV-1): > 100 µM (inactive) | GI50 (HCT-15): > 100 µM | GI50 (HOP-92): > 100 µM (inactive) | GI50 (MDA-MB-231): > 100 µM (inactive) | GI50 (NCI-H460): > 100 µM (inactive) | GI50 (UACC-257): > 100 µM (inactive) | GI50 (CAKI-1): > 100 µM (inactive) | GI50 (NCI/ADR-RES): > 100 µM (inactive) | GI50 (Hs-578T): > 100 µM (inactive) | GI50 (NCI-H226): > 100 µM (inactive) | GI50 (A498): > 100 µM (inactive) | GI50 (MCF7): > 100 µM (inactive) | GI50 (Malme-3M): > 100 µM (inactive) | GI50 (SF-539): > 100 µM (inactive) | GI50 (SK-MEL-5): > 100 µM (inactive) | GI50 (RPMI-8226): > 100 µM (inactive) | GI50 (BT-549): > 100 µM (inactive) | GI50 (CCRF-CEM): > 10 µM (inactive) | GI50 (786-0): > 100 µM (inactive) | GI50 (M14): > 100 µM (inactive)
